{
  "source": "the Kinase Knowledgebase extract (Sharma et al. 2016)",
  "data": [
    {"target": "EGFR (human) (UniProt P00533)", "sequence (P00533 whole entry, looked up)": "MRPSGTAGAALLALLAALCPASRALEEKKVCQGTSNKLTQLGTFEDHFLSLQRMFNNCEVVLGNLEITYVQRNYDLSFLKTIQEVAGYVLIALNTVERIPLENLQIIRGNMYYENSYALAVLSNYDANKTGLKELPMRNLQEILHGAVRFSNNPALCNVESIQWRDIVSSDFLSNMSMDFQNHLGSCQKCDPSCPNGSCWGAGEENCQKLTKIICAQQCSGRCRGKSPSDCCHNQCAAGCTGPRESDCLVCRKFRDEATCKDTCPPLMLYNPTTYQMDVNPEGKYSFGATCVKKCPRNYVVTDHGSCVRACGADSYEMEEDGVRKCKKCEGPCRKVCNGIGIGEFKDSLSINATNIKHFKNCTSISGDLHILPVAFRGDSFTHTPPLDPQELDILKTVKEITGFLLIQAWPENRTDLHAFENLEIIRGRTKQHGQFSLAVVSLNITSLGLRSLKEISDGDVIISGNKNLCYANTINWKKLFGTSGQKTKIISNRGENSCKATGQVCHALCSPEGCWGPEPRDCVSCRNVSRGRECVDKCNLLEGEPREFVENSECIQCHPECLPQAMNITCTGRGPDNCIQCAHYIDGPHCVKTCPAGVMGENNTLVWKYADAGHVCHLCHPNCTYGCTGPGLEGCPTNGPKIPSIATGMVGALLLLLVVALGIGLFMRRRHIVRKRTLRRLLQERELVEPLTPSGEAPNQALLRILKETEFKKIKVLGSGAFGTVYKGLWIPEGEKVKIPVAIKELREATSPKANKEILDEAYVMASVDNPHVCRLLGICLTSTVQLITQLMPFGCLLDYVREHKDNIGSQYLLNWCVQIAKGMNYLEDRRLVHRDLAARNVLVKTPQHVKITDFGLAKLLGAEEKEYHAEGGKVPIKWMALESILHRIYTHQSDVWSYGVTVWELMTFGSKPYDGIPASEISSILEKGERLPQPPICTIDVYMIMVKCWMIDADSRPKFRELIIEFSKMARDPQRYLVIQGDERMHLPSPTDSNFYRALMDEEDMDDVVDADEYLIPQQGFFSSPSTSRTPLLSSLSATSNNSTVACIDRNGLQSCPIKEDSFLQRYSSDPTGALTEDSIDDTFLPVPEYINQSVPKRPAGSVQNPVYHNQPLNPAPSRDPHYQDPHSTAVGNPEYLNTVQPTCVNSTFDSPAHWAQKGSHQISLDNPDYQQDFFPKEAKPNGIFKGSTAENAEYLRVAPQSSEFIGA", "details": "bt474", "units": {"IC50": "nM"}, "values": [
      {"smiles": "O=C(/C=C/CN1CCC1CO)Nc1cc2c(Nc3ccc(F)c(Cl)c3)ncnc2cc1OCC1CC1", "note": "(centres undefined)", "IC50": 9.5},
      {"smiles": "COC[C@@H]1CCN1C/C=C/C(=O)Nc1cc2c(Nc3ccc(F)c(Cl)c3)ncnc2cc1OC", "IC50": 21.5},
      {"smiles": "COC[C@H]1CCN1C/C=C/C(=O)Nc1cc2c(Nc3ccc(F)c(Cl)c3)ncnc2cc1OCC1CC1", "IC50": 6.6},
      {"smiles": "O=C(/C=C/CN1CCC1CO)Nc1cc2c(Nc3ccc(F)c(Cl)c3)ncnc2cc1OC[C@H]1COCCO1", "note": "(some centres undefined)", "IC50": 2.7},
      {"smiles": "COCC1CCN1C/C=C/C(=O)Nc1cc2c(Nc3ccc(F)c(Cl)c3)ncnc2cc1O[C@H]1CCOC1", "note": "(some centres undefined)", "IC50": 2.9},
      {"smiles": "O=C(/C=C/CN1CCC1CO)Nc1cc2c(Nc3ccc(F)c(Cl)c3)ncnc2cc1O[C@H]1CCOC1", "note": "(some centres undefined)", "IC50": 3.9},
      {"smiles": "COC[C@H]1CCN1C/C=C/C(=O)Nc1cc2c(Nc3ccc(F)c(Cl)c3)ncnc2cc1OC", "IC50": 1.6},
      {"smiles": "O=C(/C=C/CN1CCC1CO)Nc1cc2c(Nc3ccc(F)c(Cl)c3)ncnc2cc1OC[C@@H]1COCCO1", "note": "(some centres undefined)", "IC50": 17.5},
      {"smiles": "COCCOc1cc2ncnc(Nc3ccc(F)c(Cl)c3)c2cc1NC(=O)/C=C/CN1CC[C@@H]1COC", "IC50": 1.4},
      {"smiles": "O=C(/C=C/CN1CCC1CO)Nc1cc2c(Nc3ccc(F)c(Cl)c3)ncnc2cc1OC[C@H]1[C@@H]2COC[C@@H]21", "note": "(some centres undefined)", "IC50": 10.8},
      {"smiles": "COc1cc2ncnc(Nc3ccc(F)c(Cl)c3)c2cc1NC(=O)/C=C/CN1CCC1CO", "note": "(centres undefined)", "IC50": 2.3},
      {"smiles": "COC[C@@H]1CCN1C/C=C/C(=O)Nc1cc2c(Nc3ccc(F)c(Cl)c3)ncnc2cc1OCC1CC1", "IC50": 21.7},
      {"smiles": "COCCOc1cc2ncnc(Nc3ccc(F)c(Cl)c3)c2cc1NC(=O)/C=C/CN1CC[C@H]1COC", "IC50": 5.8},
      {"smiles": "CCOc1cc2ncnc(Nc3ccc(F)c(Cl)c3)c2cc1NC(=O)/C=C/CN1CC[C@@H]1COC", "IC50": 2}
    ]}
  ]
}
